Consider 1 compound from US10111822B2, “External dermal composition for anti-ageing and method for producing the same” (Hayashibara Co., Ltd., priority 2012, dated 2018).

Assay [1] concerns NHEK cells. The assay can be described thus: Proliferation of NHEK cells (methylene blue staining). The assay is classed as cell-based, human. Particulars: 4 days. The text has this:
Normal human epidermal keratinocytes from neonatal foreskin (commercialized by Kurabo Industries Ltd., Osaka, Japan, and abbreviated as “NHEK cells”, hereinafter) were suspended in EpiLife medium (commercialized by Invitrogen Corporation, Calif., USA) supplemented with a cell-growth supplement (EDGS: EpiLife Defined Growth Supplement) (EpiLife medium supplemented with EDGS is abbreviated as “EpiLife medium”, hereinafter), and subjected to passage cultures at a confluent density of 60 to 80% under a 5% v/v CO2 condition and at 37° C. The proliferated cells were detached from culture vessels, suspended in HuMedia-KB2 medium (commercialized by Kurabo Industries Ltd., Osaka, Japan) to give a cell density of 7.5×10^3 cells/mL, inoculated to 24-well plates coated with collagen (“Cell matrix Type IV”, a product name of Nitta Gelatin Inc., Osaka, Japan) in a volume of 0.4 mL/well, and cultured for one day under a 5% v/v CO2 condition and at 37° C. […] Then, the resulting cells were washed with distilled water and admixed with 0.33 N hydrochloric acid in a volume of 0.5 mL/well to extract the dye (methylene blue), followed by transferring the resulting extract to 96-well plates in a volume of 0.1 mL/well for measuring the absorbance at wavelengths of 595 nm and 650 nm. The values, obtained by subtracting the absorbance at a wavelength of 650 nm from that of 595 nm, were regarded as indexes of cell growth rates, which were relatively evaluated by regarding the value, as a control, obtained with KB2-HI medium free of ascorbic acid 2-glucoside as 100%.

Assay [2] has as its system Filaggrin. The experiment in a line: Expression of proliferation marker protein filaggrin in NHEK cells (Western). The format is cell-based, human. Particulars: 5 days, control regarded as 50%. The procedure:
Normal human epidermal keratinocytes from neonatal foreskin (NHEK cells) were prepared into 2.5×10^5 cells/mL with EpiLife medium, inoculated to 12-well plates in a volume of 1 mL/well, and cultured at 37° C. for one day under a 5% v/v CO2 condition. Thereafter, each supernatant was removed, and a medium, to which ascorbic acid 2-glucoside had been added to give a final concentration of 300 or 600 μM, was added to the resulting cells in a volume of 1 mL/well, followed by culturing the cells at 37° C. for two days under a 5% v/v CO2 condition. Another cell culture system, which had been similarly cultured in a medium free of ascorbic acid 2-glucoside, was provided as a control. The cells cultured with ascorbic acid 2-glucoside were further added with a medium supplemented with the same concentration of sodium salt of ascorbic acid 2-glucoside as that in the above medium in a volume of 1 mL/well, and cultured for another three days under the same conditions. […] Each of the resulting extract was centrifuged to collect a supernatant, and a part of which was subjected to protein quantification. […]

Structures are written as SMILES.

`O=C1O[C@H]([C@@H](O)CO)C(O)=C1O[C@H]1O[C@H](CO)[C@@H](O)[C@H](O)[C@H]1O` [ascorbic acid 2-glucoside, 2-O-α-D-glucosyl-L-ascorbic acid]: the Cell growth rate in assay [1] (100 μM, control without ascorbic acid 2-glucoside = 100%) was found to be 148%; in assay [1] (300 μM, control = 100%), 157%; in assay [1] (900 μM, control = 100%), 169%. The “Relative expression level, Filaggrin” value amounted to 65% in assay [2] (300 μM) and 71% in assay [2] (600 μM).
